Source: PubChem BioAssay (NCI)
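Dose response: 5 concentrations. Exposure: 48 h. Format: 96-well plates. Endpoint: linear interpolation; highest concentration if not reached. GI50: concentration for 50% inhibition of growth. The concentration for full growth arrest is given as TGI.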

Legend:
Experiment in all cases: inhibition of tumour cell growth, NCI panel, 48 h
[1] = tested on: HOP-92 NSCLC
[2] = tested on: CAKI-1 renal
[3] = tested on: HCT-116 colon
[4] = tested on: HL-60(TB) leukemia
[5] = tested on: SW-620 colon
[6] = tested on: NCI/ADR-RES ovarian
[7] = tested on: MDA-MB-231 breast
[8] = tested on: EKVX NSCLC
[9] = tested on: LOX IMVI melanoma
[10] = tested on: OVCAR-5 ovarian
[11] = tested on: SK-OV-3 ovarian
[12] = tested on: HT29 colon
[13] = tested on: T-47D breast
[14] = tested on: UACC-257 melanoma
[15] = tested on: NCI-H226 lung
[16] = tested on: SK-MEL-2 melanoma
[17] = tested on: SF-295 CNS
[18] = tested on: BT-549 breast
[19] = tested on: SF-268 CNS
[20] = tested on: MOLT-4 leukemia
[21] = tested on: OVCAR-8 ovarian
[22] = tested on: A549 NSCLC
[23] = tested on: HCC-2998 colon
[24] = tested on: OVCAR-3 ovarian
[25] = tested on: OVCAR-4 ovarian
[26] = tested on: SNB-78 CNS
[27] = tested on: SR leukemia
[28] = tested on: SNB-19 CNS
[29] = tested on: UO-31 renal
[30] = tested on: MDA-MB-435
[31] = tested on: HOP-62 NSCLC
[32] = tested on: 786-0 renal
[33] = tested on: PC-3 prostate
[34] = tested on: K-562 leukemia
[35] = tested on: SK-MEL-5 melanoma
[36] = tested on: CCRF-CEM leukemia
[37] = tested on: MCF7 breast
[38] = tested on: MDA-N
[39] = tested on: ACHN renal
[40] = tested on: M14 melanoma
[41] = tested on: MALME-3M melanoma
[42] = tested on: NCI-H522 lung
[43] = tested on: SN12C renal
[44] = tested on: IGROV1 ovarian
[45] = tested on: SNB-75 CNS
[46] = tested on: U251 CNS
[47] = tested on: HS 578T breast
[48] = tested on: TK-10 renal
[49] = tested on: KM12 colon
[50] = tested on: RPMI-8226 leukemia
[51] = tested on: COLO 205 colon
[52] = tested on: UACC-62 melanoma
[53] = tested on: SF-539 CNS
[54] = tested on: DU-145 prostate
[55] = tested on: NCI-H23 lung
[56] = tested on: HCT-15 colon
[57] = tested on: A498 renal
[58] = tested on: NCI-H460 lung
[59] = tested on: SK-MEL-28 melanoma
[60] = tested on: RXF 393 renal

Nc1ccn(C2CCC(CO)O2)c(=O)n1 (centres undefined)
GI50 [1]: > 1 mM
TGI [1]: > 1000 µM
GI50 [2]: > 1 mM
TGI [2]: > 1000 µM
GI50 [3]: > 1 mM
TGI [3]: > 1000 µM
TGI [4]: > 1000 µM
GI50 [5]: > 1 mM
TGI [5]: > 1000 µM
TGI [6]: > 1000 µM
TGI [7]: > 1000 µM
GI50 [8]: > 1 mM
TGI [8]: > 1000 µM
GI50 [9]: > 1 mM
TGI [9]: > 1000 µM
GI50 [10]: > 1 mM
TGI [10]: > 1000 µM
GI50 [11]: > 1 mM
TGI [11]: > 1000 µM
GI50 [12]: > 1 mM
TGI [12]: > 1000 µM
TGI [13]: > 1000 µM
GI50 [14]: > 1 mM
TGI [14]: > 1000 µM
GI50 [15]: > 1 mM
TGI [15]: > 1000 µM
GI50 [16]: > 1 mM
TGI [16]: > 1000 µM
GI50 [17]: > 1 mM
TGI [17]: > 1000 µM
TGI [18]: > 1000 µM
GI50 [19]: > 1 mM
TGI [19]: > 1000 µM
GI50 [20]: 87.5 µM
TGI [20]: > 1000 µM
TGI [21]: > 1000 µM
GI50 [22]: > 1 mM
TGI [22]: > 1000 µM
GI50 [23]: > 1 mM
TGI [23]: > 1000 µM
GI50 [24]: > 1 mM
TGI [24]: > 1000 µM
GI50 [25]: > 1 mM
TGI [25]: > 1000 µM
TGI [26]: > 81.9 µM
TGI [27]: > 1000 µM
GI50 [28]: > 1 mM
TGI [28]: > 1000 µM
TGI [29]: > 1000 µM
TGI [30]: > 1000 µM
GI50 [31]: > 1 mM
TGI [31]: > 1000 µM
TGI [32]: > 1000 µM
TGI [33]: > 1000 µM
GI50 [34]: > 1 mM
TGI [34]: > 1000 µM
GI50 [35]: > 1 mM
TGI [35]: > 1000 µM
GI50 [36]: 108 µM
TGI [36]: > 1000 µM
GI50 [37]: > 1 mM
TGI [37]: > 1000 µM
TGI [38]: > 1000 µM
TGI [39]: > 1000 µM
TGI [40]: > 1000 µM
GI50 [41]: > 1 mM
TGI [41]: > 1000 µM
TGI [42]: > 1000 µM
GI50 [43]: > 1 mM
TGI [43]: > 1000 µM
GI50 [44]: > 1 mM
TGI [44]: > 1000 µM
GI50 [45]: > 1 mM
TGI [45]: > 1000 µM
GI50 [46]: > 1 mM
TGI [46]: > 1000 µM
TGI [47]: > 1000 µM
TGI [48]: > 1000 µM
GI50 [49]: > 1 mM
TGI [49]: > 1000 µM
GI50 [50]: > 1 mM
TGI [50]: > 1000 µM
GI50 [51]: > 1 mM
TGI [51]: > 1000 µM
GI50 [52]: > 1 mM
TGI [52]: > 1000 µM
GI50 [53]: > 1 mM
TGI [53]: > 1000 µM
TGI [54]: > 1000 µM
GI50 [55]: > 1 mM
TGI [55]: > 1000 µM
GI50 [56]: > 1 mM
TGI [56]: > 1000 µM

CCN1CCC(O)(/C=C/c2ccc(C)cc2C)C(C(=O)/C=C/c2ccc(C)cc2C)C1 (centres undefined)
TGI [1]: 3.8 µM
TGI [2]: 9.85 µM
TGI [4]: > 100 µM
TGI [5]: 10.4 µM
TGI [6]: 7.31 µM
TGI [7]: 4.32 µM
TGI [8]: > 26 µM
TGI [9]: 3.71 µM
TGI [10]: 14.7 µM
TGI [11]: 26.7 µM
TGI [12]: 5.44 µM
TGI [13]: 8.01 µM
TGI [14]: 11.5 µM
TGI [15]: 7.79 µM
TGI [16]: 11.1 µM
TGI [17]: 4.94 µM
TGI [18]: 8.52 µM
TGI [19]: 9.12 µM
TGI [20]: 5.08 µM
TGI [21]: 5.08 µM
TGI [22]: 11.1 µM
TGI [23]: 3.37 µM
TGI [24]: 7.84 µM
TGI [25]: 7.99 µM
TGI [27]: 7.94 µM
TGI [28]: 20.3 µM
TGI [57]: 22.7 µM
TGI [29]: 6.66 µM
TGI [30]: 7.95 µM
TGI [31]: 8.54 µM
TGI [32]: 3.32 µM
TGI [33]: 9.17 µM
TGI [34]: > 100 µM
TGI [35]: 9.23 µM
TGI [36]: 7.8 µM
TGI [37]: 24.4 µM
TGI [58]: 3.32 µM
TGI [38]: 6.26 µM
TGI [39]: 3.47 µM
TGI [40]: 35.7 µM
TGI [41]: 11.4 µM
TGI [42]: 3.73 µM
TGI [43]: 7.04 µM
TGI [44]: 8.98 µM
TGI [45]: 36.6 µM
TGI [59]: 10.9 µM
TGI [46]: 11.7 µM
TGI [47]: 5.38 µM
TGI [48]: 3.41 µM
TGI [50]: > 21.2 µM
TGI [60]: 14.3 µM
TGI [51]: 4.05 µM
TGI [52]: 11 µM
TGI [53]: 4.18 µM
TGI [54]: 10.5 µM
TGI [55]: 7.86 µM
TGI [56]: 4.14 µM

ClCC[N+]12CC[N+](CCCl)(CC1)C2
TGI [1]: > 100 µM
TGI [2]: > 100 µM
TGI [3]: > 100 µM
TGI [4]: > 100 µM
TGI [5]: > 100 µM
TGI [6]: > 100 µM
TGI [7]: > 100 µM
TGI [8]: > 100 µM
TGI [9]: > 100 µM
TGI [10]: > 100 µM
TGI [11]: > 100 µM
TGI [12]: > 100 µM
TGI [13]: > 100 µM
TGI [14]: > 100 µM
TGI [15]: > 100 µM
TGI [16]: > 100 µM
TGI [17]: > 100 µM
TGI [18]: > 100 µM
TGI [19]: > 100 µM
TGI [20]: > 100 µM
TGI [21]: > 100 µM
TGI [22]: > 100 µM
TGI [23]: > 100 µM
TGI [24]: > 100 µM
TGI [25]: > 100 µM
TGI [27]: > 100 µM
TGI [28]: > 100 µM
TGI [57]: > 100 µM
TGI [29]: > 100 µM
TGI [30]: > 100 µM
TGI [31]: > 100 µM
TGI [32]: > 100 µM
TGI [33]: > 100 µM
TGI [34]: > 100 µM
TGI [35]: > 100 µM
TGI [36]: > 100 µM
TGI [37]: > 100 µM
TGI [58]: > 100 µM
TGI [38]: > 100 µM
TGI [39]: > 100 µM
TGI [40]: > 100 µM
TGI [41]: > 100 µM
TGI [42]: > 100 µM
TGI [43]: > 100 µM
TGI [44]: > 100 µM
TGI [45]: > 100 µM
TGI [59]: > 100 µM
TGI [46]: > 100 µM
TGI [47]: > 100 µM
TGI [48]: > 100 µM
TGI [49]: > 100 µM
TGI [50]: > 100 µM
TGI [60]: > 100 µM
TGI [51]: > 100 µM
TGI [52]: > 100 µM
TGI [53]: > 100 µM
TGI [54]: > 100 µM
TGI [55]: > 100 µM
TGI [56]: > 100 µM
